Measurements: US20150072967A1, “TAUROURSODEOXYCHOLIC ACID ATTENTUATES OR ABOLISHES FORMATION AND DEPOSITION OF AMYLOID-B PEPTIDE” (Metselex, Inc., priority 2012, published 2015)

Experiments:
APP/PS1 mice [1] = experiment: Aβ immunohistochemistry (6E10), Aβ plaque number in brain; format: in vivo, mouse; conditions: TUDCA-treated APP/PS1 mice vs untreated transgenic mice
Description: (§1) Transgenic mice and TUDCA treatment. APP/PS1 double-transgenic mice express human APP containing the KM670/671NL Swedish double mutation and human PS 1 carrying the L166P mutation under the control of a neuron-specific murine Thy-1 minigene promoter. The two transgenes cosegregate in these mice. APP/PS1 mice were maintained on a C57BL/6J genetic background and genotyped by PCR analysis of genomic DNA from tail biopsies. All animals were kept in standard animal cages under conventional laboratory conditions (12 h light/dark cycle, 22° C.), with ad libitum access to food and water. The animals were randomized for therapy trials and coded, and the operators remained double blinded to which treatment they received, until the completion of data collection. Male APP/PS1 transgenic mice and wild-type littermates were randomly assigned into four groups: TUDCA-treated and untreated (control) APP/PS1 mice and TUDCA-treated and untreated (control) wild-type mice. […]
(§2) Image analysis and semiquantification of immunofluorescence. Images were acquired with an Axioskop fluorescence microscope (Carl Zeiss GmbH, Hamburg, Germany). Semiquantitative analysis of mean fluorescence intensities (MFIs) of GFAP, Iba-I, and MAP2 were performed using NIH Image J software. […] An intensity threshold was set and kept constant for all images analyzed. […]

γ-secretase = γ-secretase activity / APP processing by immunoblot of APP-CTFs and total Aβ; format: in vivo, mouse; conditions: brain tissue
Description: (§3) Transgenic mice and TUDCA treatment. APP/PS1 double-transgenic mice express human APP containing the KM670/671NL Swedish double mutation and human PS 1 carrying the L166P mutation under the control of a neuron-specific murine Thy-1 minigene promoter. The two transgenes cosegregate in these mice. APP/PS1 mice were maintained on a C57BL/6J genetic background and genotyped by PCR analysis of genomic DNA from tail biopsies. All animals were kept in standard animal cages under conventional laboratory conditions (12 h light/dark cycle, 22° C.), with ad libitum access to food and water. The animals were randomized for therapy trials and coded, and the operators remained double blinded to which treatment they received, until the completion of data collection. Male APP/PS1 transgenic mice and wild-type littermates were randomly assigned into four groups: TUDCA-treated and untreated (control) APP/PS1 mice and TUDCA-treated and untreated (control) wild-type mice. Animals were fed a diet of standard laboratory chow supplemented with either 0.4% (wt/wt) TUDCA (sodium salt; Prodotti Chimici e Alimentari S.p.A., Basaluzzo, Italy), or no bile acid, custom made by Harlan (Harlan Laboratories Models, S.L., Barcelona, Spain). Treatment was started when the mice were 2 months old and continued for 6 months. The dose and duration of TUDCA, whose pharmacokinetics has been extensively studied in rodents, were chosen based on pilot studies using APP/PS1 mice and other animal studies.
γ-secretase activity. Assessment of γ-secretase activity was performed by detection of the ˜7 KDa carboxyl terminal fragment (CTF)-γ cleavage product of APP. Briefly, 60 μg of total protein extracts were resolved electrophoretically in 10-20% Tris-Tricine gels (BioRad), and CTF-γ (and CTF-β) identified using an anti-APP, C-terminal rabbit polyclonal antibody (Sigma-Aldrich; 1:2000). After stripping, membranes were incubated with the primary mouse monoclonal antibody reactive to Aβ (6E10; Signet; 1:1000) to detect total Aβ peptide. Immunoreactivities were visualized as described above.

hepatocytes = conditions: DNA microarray; cited from earlier work
APP/PS1 mice [2] = experiment: Iba-I immunostaining (activated microglia); format: in vivo, mouse
Description: as §1
(§4) Image analysis and semiquantification of immunofluorescence. Images were acquired with an Axioskop fluorescence microscope (Carl Zeiss GmbH, Hamburg, Germany). Semiquantitative analysis of mean fluorescence intensities (MFIs) of GFAP, Iba-I, and MAP2 were performed using NIH Image J software. […]

APP/PS1 mice [3] = experiment: MAP2 immunoreactivity (neuronal integrity); format: in vivo, mouse
Description: as §1, §4

APP/PS1 mice [4] = experiment: Sandwich ELISA of Aβ1-40 and Aβ1-42 in brain extracts; format: in vivo, mouse; conditions: hippocampus and frontal cortex of APP/PS1 mice; p<0.01
Description: as §1
Sandwich ELISA. […] Total Aβ1-40 or Aβ1-42 content was measured by sandwich ELISA (Millipore) according to the manufacturer's instructions. Values were normalized to the respective total protein concentration and expressed as % of wild-type control.

APP/PS1 mice [5] = experiment: GFAP immunofluorescence (activated astrocytes); format: in vivo, mouse; conditions: hippocampus and frontal cortex; TUDCA-treated APP/PS1 mice; p<0.05
Description: as §1, §2

[6] = system: CTGF, A2M, APOE, SORLA expression; experiment: Real-time PCR of lipid-metabolism mediators in brain; format: in vivo, mouse
Description: as §3
Real-time PCR. Total RNA from dissected hippocampus and frontal cortex was isolated with TRIzol (Invitrogen), according to the manufacturer's instructions. Samples were homogenized in TRIzol using a motor-driven Bio-vortexer (No 1083; Biospec Products, Bartlesfield, Okla.) and disposable RNAse/DNAse free sterile pestles (Thermo Scientific). […] Real-time quantitative PCR analysis was performed in the 7300 Real-Time PCR System (Applied Biosystems, Foster City, Calif., USA), using SYBR Green PCR master mix (Fermentas International Inc., Glen Burnie, Md., USA). Triplicate reactions were run per sample. The expression levels relative to GAPDH were calculated using the ΔΔCt method. TUDCA-untreated wild-type mice were used as the calibrator. The n-fold change in expression was obtained using the formula: 2^−ΔΔCt.

APP/PS1 mice [7] = experiment: Thioflavin T staining of amyloid plaque burden in brain sections; format: in vivo, mouse
Description: Transgenic mice and TUDCA treatment. APP/PS1 double-transgenic mice express human APP containing the KM670/671NL Swedish double mutation and human PS 1 carrying the L166P mutation under the control of a neuron-specific murine Thy-1 minigene promoter. The two transgenes cosegregate in these mice. APP/PS1 mice were maintained on a C57BL/6J genetic background and genotyped by PCR analysis of genomic DNA from tail biopsies. All animals were kept in standard animal cages under conventional laboratory conditions (12 h light/dark cycle, 22° C.), with ad libitum access to food and water. […]
Image analysis and semiquantification of immunofluorescence. Images were acquired with an Axioskop fluorescence microscope (Carl Zeiss GmbH, Hamburg, Germany). Semiquantitative analysis of mean fluorescence intensities (MFIs) of GFAP, Iba-I, and MAP2 were performed using NIH Image J software. […] An intensity threshold was set and kept constant for all images analyzed. MFI per square millimeter area was calculated by dividing the MFI units by the area of outlined regions and is presented as a bar graph. The total number of thioflavin- and Aβ-positive plaques in the hippocampus and frontal cortex was counted and presented as plaque number per square millimeter.

[8] = cited from earlier work
APP/PS1 mice [9] = experiment: Recognition, spatial and contextual fear memory; format: in vivo, mouse; conditions: transgenic mice vs control transgenic mice
Description: as §3, with “The dose and duration of TUDCA, whose pharmacokinetics has been extensively studied in rodents, were chosen based on pilot studies using APP/PS1 mice and other animal studies.” left out

[10] = TUDCA-treated APP/PS1 mice vs control transgenic mice
[11] = APP/PS1 mice hippocampus, p<0.05

## C[C@H](CCC(=O)NCCS(=O)(=O)O)[C@H]1CC[C@H]2[C@@H]3[C@@H](O)C[C@@H]4C[C@H](O)CC[C@]4(C)[C@H]3CC[C@]12C [TUDCA, tauroursodeoxycholic acid]
APP/PS1 mice [1]; frontal cortex, p<0.05
  decrease of Aβ plaque number: 40%
APP/PS1 mice [1]; hippocampus, p<0.01
  decrease of Aβ plaque number: ~65%
γ-secretase; TUDCA-fed transgenic mice vs control transgenic mice
  CTF-β levels: decreased
γ-secretase; TUDCA-treated APP/PS1 mice vs control APP/PS1 mice
  total Aβ levels: decreased
γ-secretase; [10]
  full-length APP levels: remained unchanged
  production of CTF-γ: decrease
hepatocytes
  downregulation of A2M expression: greater than 10 fold
  downregulation of CTGF expression: greater than 10 fold
APP/PS1 mice [2]; TUDCA-treated APP/PS1 mice relative to control APP/PS1 mice, p<0.05
  Iba-I immunoreactivity: significantly less
APP/PS1 mice [2]; brains of TUDCA-treated APP/PS1 mice vs control APP/PS1 mice
  reactive microglia around amyloid plaques (Iba-I/thioflavin double-staining): fewer reactive microglia
APP/PS1 mice [3]; brains of TUDCA-treated APP/PS1 mice
  integrity of the neuronal fibers around amyloid plaques (MAP2/amyloid double staining): significant improvement
APP/PS1 mice [3]; hippocampus and frontal cortex of APP/PS1 mice, p<0.05
  MAP2 immunoreactivity: prevented the loss
APP/PS1 mice [4]
  Aβ1-40 levels: significantly decreased
  Aβ1-42 levels: significantly decreased
APP/PS1 mice [5]
  GFAP immunoreactivity: decreased
[6]; APP/PS1 mice frontal cortex
  A2M expression (mRNA): trend for decreased
  APOE expression (mRNA): trend for decreased
[6]; APP/PS1 mice frontal cortex, p<0.05
  CTGF expression (mRNA): significantly decreased
[6]; APP/PS1 mice hippocampus
  SORLA expression (mRNA): slightly increasing
[6]; [11]
  A2M expression (mRNA): significantly decreased
  APOE expression (mRNA): significantly decreased
  CTGF expression (mRNA): significantly decreased
APP/PS1 mice [7]; TUDCA-treated wild-type mice
  amyloid deposits (thioflavin staining): absent
APP/PS1 mice [7]; hippocampus and frontal cortex, APP/PS1 mice fed 0.4% (wt/wt) TUDCA for 6 months vs control transgenic mice, p<0.01
  thioflavin plaque number: marked reduction
[8]
  oral bioavailability: orally bioavailable
APP/PS1 mice [9]
  recognition, and spatial and contextual fear memory: improved
